How the values were obtained:
HBV = test: Anti-HBV activity in HepG2.117 cell line (intracellular HBV DNA, real-time PCR); assay type: cell-based, hepatitis B virus; conditions: HepG2.117 cells, HBV replication induced, 3 days of treatment, intracellular HBV DNA by real-time PCR
Procedure: The anti HBV activity was measured using the HepG2.117 cell line, a stable, inducibly HBV producing cell line, which replicates HBV in the absence of doxycycline (Tet-off system). The HepG2 cell line is available from ATCCR under number HB-8065. Transfection of the HepG2 cell line can be as described in Sun and Nassal 2006 Journal of Hepatology 45 (2006) 636-645 “Stable HepG2-and Huh7-based human hepatoma cell lines for efficient regulated expression of infectious hepatitis B virus”.
For the antiviral assay, HBV replication was induced, followed by a treatment with serially diluted compound in 96-well plates. After 3 days of treatment, the antiviral activity was determined by quantification of intracellular HBV DNA using real-time PCR and an HBV specific primer set and probe.

[1] = Human liver microsome stability; assay type: in vitro ADME; conditions: 1 μM compound, NADPH 1 mM, pH 7.4, 37° C., 0-60 min; for half-life at 1 μM: human, pooled human liver microsomes, pH 7.4, pooled human liver microsomes 0.5 mg/mL, read-out: HLM Metabolism t1/2
Procedure: Pooled human liver microsomes (0.5 mg/mL) was pre-incubated with 1 μM test compounds or control compounds (verapamil, warfarin and cerivastatin) in 0.1 M phosphate buffer pH 7.4 containing 1 mM MgCl2 at 37° C. The final concentration of DMSO and acetonitrile are 0.05% and 0.2%, respectively. All incubations are performed singularly for each compound. NADPH was added to initiate the reaction with the final concentration of 1 mM and the final incubation volume of 400 μL.
At 6 time points (0, 5, 10, 20, 40 and 60 min) reactions were stopped by the removal of 50 μL of the incubation mixture into plates containing acetonitrile at a of 1:3 (v:v). The plates were centrifuged at 3000 rpm for 10 min at 4° C. to precipitate the protein. Following protein precipitation, the sample supernatants were combined in cassettes of up to 8 compounds. The internal standard was added (1:1 supernatant to internal standard solution) and samples were analyzed using standard LC-MS conditions.
From a plot of ln peak area ratio (compound peak area/internal standard peak area) against time, the gradient of the line is determined. Subsequently, half-life is calculated using the equations below: […]

[2] = Cytotoxicity, ATPlite Luminescence Assay; assay type: cell-based, human; conditions: human, HepG2 or HepG2.117 cells, 3-days incubation unless marked with *, ATPlite viability
Procedure: Cytotoxicity of the compounds was tested using HepG2 or HepG2.117 cells, incubated for 3 or 4 days in the presence of compounds. The viability of the cells was assessed using the PERKIN ELMER ATPlite Luminescence Assay System.”

[3] = Hepatitis B virus, HepG2.117, 72 h

SMILES	EC50 (HBV; [3]) [µM]	half-life at 1 μM [1] [h]	CC50 [2] [µM]	EC50 (HBV) [µM]	HLM Metabolism t1/2 ([1]; pooled human liver microsomes 0.5 mg/mL) [h]
CNC(=O)[C@@H]1CN([C@H](C)c2ccc(C(F)(F)F)nc2)C(=O)c2c3c(nn21)C[C@@H](C)N(C(=O)c1ccc(Cl)c(C(F)(F)F)c1)C3 [Compound 15A, (3R,7S)-2-(4-Chloro-3-(trifluoromethyl)benzoyl)-N,3-dimethyl-10-oxo-9-((R)-1-(6-(trifluoromethyl)pyridin-3-yl)ethyl)-1,2,3,4,7,8,9,10-octahydropyrido[4′,3′:3,4]pyrazolo[1,5-a]pyrazine-7-carboxamide]	0.086	> 3	> 50		
C[C@@H]1Cc2nn3c(c2CN1C(=O)c1ccc(Cl)c(C#N)c1)C(=O)N([C@H](C)c1ccc(OC(F)F)cc1)C[C@H]3C(=O)N(C)C [Compound 27A, (3R,7S)-2-(4-Chloro-3-cyanobenzoyl)-9-((R)-1-(4-(difluoromethoxy)phenyl)ethyl)-N,N,3-trimethyl-10-oxo-1,2,3,4,7,8,9,10-octahydropyrido[4′,3′:3,4]pyrazolo[1,5-a]pyrazine-7-carboxamide]	0.031	> 3	> 50		
CNC(=O)[C@@H]1CN([C@@H](C)c2cnc(C(F)(F)F)cn2)C(=O)c2c3c(nn21)C[C@@H](C)N(C(=O)c1ccc(Cl)c(Cl)c1)C3 [Compound 6B, (3R,7S)-2-(3,4-Dichlorobenzoyl)-N,3-dimethyl-10-oxo-9-((S)-1-(5-(trifluoromethyl)pyrazin-2-yl)ethyl)-1,2,3,4,7,8,9,10-octahydropyrido[4′,3′:3,4]pyrazolo[1,5-a]pyrazine-7-carboxamide]	0.092	> 3	> 50		
CNC(=O)[C@@H]1CN(C(C)c2ccc(OC(F)F)c(F)c2)C(=O)c2c3c(nn21)C[C@@H](C)N(C(=O)c1ccc(Cl)c(Cl)c1)C3 (single isomer, unassigned) [Compound 24A, (3R,7S)-2-(3,4-Dichlorobenzoyl)-9-((R*)-1-(4-(difluoromethoxy)-3-fluorophenyl)ethyl)-N,3-dimethyl-10-oxo-1,2,3,4,7,8,9,10-octahydropyrido[4′,3′:3,4]pyrazolo[1,5-a]pyrazine-7-carboxamide]		> 3	20.6	0.054	
CNC(=O)[C@@H]1CN(C(C)c2ccc(C(C)(C)O)nc2)C(=O)c2c3c(nn21)C[C@@H](C)N(C(=O)c1ccc(Cl)c(Cl)c1)C3 (single isomer, unassigned) [Compound 3B, (3R,7S)-2-(3,4-Dichlorobenzoyl)-9-((S*)-1-(6-(2-hydroxypropan-2-yl)pyridin-3-yl)ethyl)-N,3-dimethyl-10-oxo-1,2,3,4,7,8,9,10-octahydropyrido[4′,3′:3,4]pyrazolo[1,5-a]pyrazine-7-carboxamide]	0.051	> 3	> 50		
C[C@@H]1Cc2nn3c(c2CN1C(=O)c1ccc(Cl)c(C#N)c1)C(=O)N([C@@H](C)c1ccc(OC(F)F)cc1)C[C@H]3C(=O)N(C)C [Compound 27B, (3R,7S)-2-(4-chloro-3-cyanobenzoyl)-9-((S)-1-(4-(difluoromethoxy)phenyl)ethyl)-N,N,3-trimethyl-10-oxo-1,2,3,4,7,8,9,10-octahydropyrido[4′,3′:3,4]pyrazolo[1,5-a]pyrazine-7-carboxamide]	0.046	> 3	> 50		
CNC(=O)[C@@H]1CN(C(C)c2ccc(NCC(F)(F)F)nc2)C(=O)c2c3c(nn21)C[C@@H](C)N(C(=O)c1ccc(Cl)c(Cl)c1)C3 (single isomer, unassigned) [Compound 33A, (3R,7S)-2-(3,4-Dichlorobenzoyl)-N,3-dimethyl-10-oxo-9-((R*)-1-(6-((2,2,2-trifluoroethyl)amino)pyridin-3-yl)ethyl)-1,2,3,4,7,8,9,10-octahydropyrido[4′,3′:3,4]pyrazolo[1,5-a]pyrazine-7-carboxamide]	0.062		> 50		0.798
CNC(=O)[C@@H]1CN(C(C)c2ccnc(C(F)(F)F)c2)C(=O)c2c3c(nn21)C[C@@H](C)N(C(=O)c1ccc(Cl)c(Cl)c1)C3 (single isomer, unassigned) [Compound 9B, (3R,7S)-2-(3,4-Dichlorobenzoyl)-N,3-dimethyl-10-oxo-9-((S*)-1-(2-(trifluoromethyl)pyridin-4-yl)ethyl)-1,2,3,4,7,8,9,10-octahydropyrido[4′,3′:3,4]pyrazolo[1,5-a]pyrazine-7-carboxamide]	0.061	> 3	> 50		
C[C@@H]1Cc2nn3c(c2CN1C(=O)c1ccc(Cl)c(Cl)c1)C(=O)N([C@H](C)c1ccc(OC(F)F)cc1)CC3 [Ref 1, reference compound]	0.069	0.257	> 50		
CNC(=O)[C@@H]1CN([C@H](C)c2ccc(S(C)(=O)=O)cc2)C(=O)c2c3c(nn21)C[C@@H](C)N(C(=O)c1ccc(Cl)c(Cl)c1)C3 [Compound 18A, (3R,7S)-2-(3,4-Dichlorobenzoyl)-N,3-dimethyl-9-((R)-1-(4-(methylsulfonyl)phenyl)ethyl)-10-oxo-1,2,3,4,7,8,9,10-octahydropyrido[4′,3′:3,4]pyrazolo[1,5-a]pyrazine-7-carboxamide]	0.597	> 3	> 50		
CNC(=O)[C@@H]1CN(C(C)c2cnc(C(F)(F)F)nc2)C(=O)c2c3c(nn21)C[C@@H](C)N(C(=O)c1ccc(Cl)c(C(F)(F)F)c1)C3 (single isomer, unassigned) [Compound 43A, (3R,7S)-2-(4-Chloro-3-(trifluoromethyl)benzoyl)-N,3-dimethyl-10-oxo-9-((R*)-1-(2-(trifluoromethyl)pyrimidin-5-yl)ethyl)-1,2,3,4,7,8,9,10-octahydropyrido[4′,3′:3,4]pyrazolo[1,5-a]pyrazine-7-carboxamide]		> 3	> 50	0.61	
CNC(=O)[C@@H]1CN(C(C)c2ccc(-n3cncn3)cc2)C(=O)c2c3c(nn21)C[C@@H](C)N(C(=O)c1ccc(Cl)c(Cl)c1)C3 (single isomer, unassigned) [Compound 2A, (3R,7S)-9-((R*)-1-(4-(1H-1,2,4-triazol-1-yl)phenyl)ethyl)-2-(3,4-dichlorobenzoyl)-N,3-dimethyl-10-oxo-1,2,3,4,7,8,9,10-octahydropyrido[4′,3′:3,4]pyrazolo[1,5-a]pyrazine-7-carboxamide]		> 3	> 50	0.042	
CNC(=O)[C@@H]1CN(C(C)c2cc(F)ccn2)C(=O)c2c3c(nn21)C[C@@H](C)N(C(=O)c1ccc(Cl)c(Cl)c1)C3 (single isomer, unassigned) [Compound 42A, (3R,7S)-2-(3,4-Dichlorobenzoyl)-9-((R*)-1-(4-fluoropyridin-2-yl)ethyl)-N,3-dimethyl-10-oxo-1,2,3,4,7,8,9,10-octahydropyrido[4′,3′:3,4]pyrazolo[1,5-a]pyrazine-7-carboxamide]		> 3	> 50	0.28	
CNC(=O)[C@@H]1CN(C(C)c2ccc(C(C)(C)O)cc2)C(=O)c2c3c(nn21)C[C@@H](C)N(C(=O)c1ccc(Cl)c(Cl)c1)C3 (single isomer, unassigned) [Compound 5B, (3R,7S)-2-(3,4-Dichlorobenzoyl)-9-((S*)-1-(4-(2-hydroxypropan-2-yl)phenyl)ethyl)-N,3-dimethyl-10-oxo-1,2,3,4,7,8,9,10-octahydropyrido[4′,3′:3,4]pyrazolo[1,5-a]pyrazine-7-carboxamide]	0.019	1.44	> 50		
